Assays:
[1] = tested on: PSMA+PIP and PSMA-flu tumors in a male SCID mouse; details: 44.4 MBq (1.2 mCi) intravenously, imaged repeatedly over an eight day period
PSMA = target: T1, PSMA (Homo sapiens, UniProt Q04609); assay: fluorescence-based PSMA inhibition assay (NAAG hydrolysis, LNCaP cell lysates, Amplex Red); format: biochemical; details: for Ki: PSMA inhibitory activity, Cheng-Prusoff conversion
T1 construct: endogenous in cells; host or cells: LNCaP cell lysate
T1 sequence (Q04609 whole entry): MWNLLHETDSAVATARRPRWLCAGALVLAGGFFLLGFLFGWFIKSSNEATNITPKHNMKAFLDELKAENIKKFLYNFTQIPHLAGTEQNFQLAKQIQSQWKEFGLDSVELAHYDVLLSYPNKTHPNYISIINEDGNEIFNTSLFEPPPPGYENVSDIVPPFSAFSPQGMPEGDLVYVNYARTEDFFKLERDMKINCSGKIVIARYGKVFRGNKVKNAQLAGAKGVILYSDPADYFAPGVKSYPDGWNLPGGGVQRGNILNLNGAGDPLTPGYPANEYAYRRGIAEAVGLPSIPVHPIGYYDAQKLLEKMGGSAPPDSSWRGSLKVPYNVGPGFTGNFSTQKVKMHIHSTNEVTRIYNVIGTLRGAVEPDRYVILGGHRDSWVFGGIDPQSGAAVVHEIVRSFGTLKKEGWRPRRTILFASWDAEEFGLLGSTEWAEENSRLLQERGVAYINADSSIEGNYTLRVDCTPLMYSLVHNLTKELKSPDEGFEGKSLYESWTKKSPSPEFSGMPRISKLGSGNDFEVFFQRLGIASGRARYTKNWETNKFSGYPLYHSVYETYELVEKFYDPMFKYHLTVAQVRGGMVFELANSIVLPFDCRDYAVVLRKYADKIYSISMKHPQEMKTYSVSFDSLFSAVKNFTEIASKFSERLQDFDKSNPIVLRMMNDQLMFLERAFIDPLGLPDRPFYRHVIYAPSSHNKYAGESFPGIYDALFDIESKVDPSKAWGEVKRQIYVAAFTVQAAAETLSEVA

Ki (PSMA)	increase in binding affinity (Ki) compared to monovalent 1 (PSMA; relative to compound 1)	Structure (SMILES)	radiotracer uptake on SPECT-CT [1]
		O=C(O)CC[C@H](NC(=O)N[C@@H](CCCCNC(=O)CCCCCCC(=O)NC(CCCCn1cc(C(=O)NCCCCC(NC(=O)c2cn(CCCCC(NC(=O)CCCCCCC(=O)NCCCC[C@H](NC(=O)N[C@@H](CCC(=O)O)C(=O)O)C(=O)O)C(=O)O)nn2)C(=O)NC(CCCCNC(=O)CN2CCN(CC(=O)O)CCN(CC(=O)O)CCN(CC(=O)O)CC2)C(=O)O)nn1)C(=O)O)C(=O)O)C(=O)O.[111In+3] (stereo partly shown) [[^111In]3]	Intense radiotracer uptake was seen only in the PSMA+PIP tumors and in the kidneys
0.1 nM	5 fold	NCCCCC(NC(=O)C(CCCCNC(=O)c1cn(CCCCC(NC(=O)CCCCCCC(=O)NCCCC[C@H](NC(=O)NC(CCC(=O)O)C(=O)O)C(=O)O)C(=O)O)nn1)NC(=O)c1nn[nH]c1CCCCC(NC(=O)CCCCCCC(=O)NCCCC[C@H](NC(=O)NC(CCC(=O)O)C(=O)O)C(=O)O)C(=O)O)C(=O)O (stereo partly drawn) [Compound 2, (7S)-26-(4-((1-((5-amino-1-carboxypenty 1)amino)-1-oxo-6-(1-((7S)-1,3,7,22-tetracarboxy-5,13,20-trioxo-4,6,12,21-tetraazahexacosan-26-yl) 1H-1,2,3-triazole-4-carboxamido)hexan-2-yl)carbamoyl)-1H-1,2,3-triazol-5-yl)-5,13,20-trioxo-4,6,12,21-tetraazahexacosane-1,3,7,22-tetracarboxylic acid]	
0.08 nM		O=C(O)CCC(NC(=O)N[C@@H](CCCCNC(=O)CCCCCCC(=O)NC(CCCCc1[nH]nnc1C(=O)NC(CCCCNC(=O)c1cn(CCCCC(NC(=O)CCCCCCC(=O)NCCCC[C@H](NC(=O)NC(CCC(=O)O)C(=O)O)C(=O)O)C(=O)O)nn1)C(=O)NC(CCCCNC(=O)CN1CCN(CC(=O)O)CCN(CC(=O)O)CCN(CC(=O)O)CC1)C(=O)O)C(=O)O)C(=O)O)C(=O)O (stereo partly drawn) [Compound 3, (7S)-26-(4-((1-((1-carboxy-5-(2-(4,7,10-tris(carboxymethyl)-1,4,7,10-tetraazacyclododecan-1-yl)acetamido)pentyl)amino)-1-oxo-6-(1-((7 S)-1,3,7,22-tetracarboxy-5,13,20-trioxo-4,6,12,21-tetraazahexacosan-26-yl)-1H-1,2,3-triazole-4-carboxamido)hexan-2-yl)carbamoyl)-1H-1,2,3-triazol-5-yl)-5,13,20-trioxo-4,6,12,21-tetraazahexacosane-1,3,7,22-tetracarboxylic acid]	

— patent US10653806B2, “Homomultivalent and heteromultivalent inhibitors of prostate specific membrane antigen (PSMA) and uses thereof” (THE JOHNS HOPKINS UNIVERSITY, priority 2011, dated 2020)
